In ChEMBL document CHEMBL1153973, “Regioisomerism-dependent TLR7 agonism and antagonism in an imidazoquinoline” (Bioorg Med Chem Lett, 2009):

Experiments:
Toll-like receptor 7 [1] = target: T1, Toll-like receptor 7 (Homo sapiens, UniProt Q9NYK1); assay: Agonist activity at TLR7 expressed in HEK293 cells assessed as increase in NF-kappaB activation at 25 ug/mL by SEAP assay; format: functional, cell-based
T1 sequence (Q9NYK1 whole entry): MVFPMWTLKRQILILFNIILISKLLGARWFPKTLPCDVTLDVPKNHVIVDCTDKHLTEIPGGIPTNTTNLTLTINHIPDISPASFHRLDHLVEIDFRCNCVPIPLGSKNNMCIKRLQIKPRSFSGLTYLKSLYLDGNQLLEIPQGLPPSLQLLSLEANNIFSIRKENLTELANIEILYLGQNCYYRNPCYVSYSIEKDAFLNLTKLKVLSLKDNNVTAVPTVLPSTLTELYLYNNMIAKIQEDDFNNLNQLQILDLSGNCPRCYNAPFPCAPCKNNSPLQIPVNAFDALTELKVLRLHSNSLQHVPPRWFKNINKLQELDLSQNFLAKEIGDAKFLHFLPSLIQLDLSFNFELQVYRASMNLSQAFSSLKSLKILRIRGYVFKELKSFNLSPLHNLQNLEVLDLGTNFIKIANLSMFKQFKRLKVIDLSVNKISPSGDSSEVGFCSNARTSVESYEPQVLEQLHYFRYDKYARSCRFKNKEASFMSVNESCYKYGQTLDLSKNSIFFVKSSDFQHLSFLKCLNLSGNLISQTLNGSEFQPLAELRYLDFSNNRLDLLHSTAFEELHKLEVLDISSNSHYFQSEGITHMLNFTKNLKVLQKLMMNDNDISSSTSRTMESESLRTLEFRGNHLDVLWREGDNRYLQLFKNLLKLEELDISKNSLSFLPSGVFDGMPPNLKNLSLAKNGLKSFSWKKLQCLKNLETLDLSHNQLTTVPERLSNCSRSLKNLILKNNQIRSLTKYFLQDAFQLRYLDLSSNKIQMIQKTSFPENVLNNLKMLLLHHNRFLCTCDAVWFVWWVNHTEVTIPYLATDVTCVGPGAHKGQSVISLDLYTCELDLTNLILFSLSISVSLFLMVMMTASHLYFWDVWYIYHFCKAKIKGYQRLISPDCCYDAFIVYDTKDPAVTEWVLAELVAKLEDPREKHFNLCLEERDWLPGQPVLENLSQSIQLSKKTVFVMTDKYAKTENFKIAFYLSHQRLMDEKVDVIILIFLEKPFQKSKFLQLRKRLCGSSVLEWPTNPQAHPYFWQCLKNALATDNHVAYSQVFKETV

Toll-like receptor 7 [2] = target: T1, Toll-like receptor 7

Row | IC50 (Toll-like receptor 7 [1]) | IC50 (Toll-like receptor 7 [2]) [µM] | Compound
1 | Not Active | 25 | CCNCc1nc2c3ccccc3nc(N)c2n1CC(C)(C)O.O=C(O)C(F)(F)F.O=C(O)C(F)(F)F
2 |  | 7.5 | CCNCc1nc2c3ccccc3ncc2n1CC(C)(C)O
